This is an account of results in patent publication US20260217708A1, “FUSED BENZAZEPINE DERIVATIVES FOR USE IN THE TREATMENT OF CANCER AND EPILEPSY” (UCB BIOPHARMA SRL, priority 2023, published 2026).

Test [1] concerns the target T1, system Xc^− (Homo sapiens, UniProt Q9UPY5).
T1 sequence (Q9UPY5 1-501): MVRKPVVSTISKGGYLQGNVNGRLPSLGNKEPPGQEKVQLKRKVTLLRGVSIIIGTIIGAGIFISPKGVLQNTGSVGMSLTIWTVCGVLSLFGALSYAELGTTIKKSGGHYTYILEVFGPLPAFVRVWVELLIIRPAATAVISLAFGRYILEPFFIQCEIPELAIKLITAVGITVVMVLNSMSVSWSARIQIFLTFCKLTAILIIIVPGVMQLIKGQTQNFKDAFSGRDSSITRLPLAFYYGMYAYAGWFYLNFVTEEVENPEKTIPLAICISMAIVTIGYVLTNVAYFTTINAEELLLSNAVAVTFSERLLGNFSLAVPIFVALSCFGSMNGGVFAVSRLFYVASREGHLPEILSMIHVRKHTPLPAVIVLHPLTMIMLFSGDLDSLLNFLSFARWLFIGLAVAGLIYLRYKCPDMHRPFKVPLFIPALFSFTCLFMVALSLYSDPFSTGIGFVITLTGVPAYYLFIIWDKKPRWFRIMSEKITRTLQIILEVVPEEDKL
T1 sequence (P08195 1-529 partner): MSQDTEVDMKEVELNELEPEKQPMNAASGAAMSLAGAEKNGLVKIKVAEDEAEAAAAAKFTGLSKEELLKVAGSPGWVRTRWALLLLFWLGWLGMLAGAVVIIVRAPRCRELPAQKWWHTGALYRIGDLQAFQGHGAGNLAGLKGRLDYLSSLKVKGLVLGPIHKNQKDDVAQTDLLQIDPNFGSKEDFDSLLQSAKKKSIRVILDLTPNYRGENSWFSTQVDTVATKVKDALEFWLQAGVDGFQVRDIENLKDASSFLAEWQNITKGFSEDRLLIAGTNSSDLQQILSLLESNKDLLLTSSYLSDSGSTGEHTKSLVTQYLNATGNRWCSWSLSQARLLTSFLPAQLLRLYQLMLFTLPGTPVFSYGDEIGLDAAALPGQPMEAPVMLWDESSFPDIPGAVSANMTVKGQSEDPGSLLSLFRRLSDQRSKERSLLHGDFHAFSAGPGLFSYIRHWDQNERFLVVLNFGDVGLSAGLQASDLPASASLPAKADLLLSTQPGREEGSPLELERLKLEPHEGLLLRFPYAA
The experiment in a line: Cystine-induced glutamate release assay. The class given is cell-based. Also noted: endogenous in cells; host or cells: H4 cells. The note with it: H4 cells, sodium-free HEPES buffer, 50 μM L-Cystine, 2 hours, Amplex Red glutamate readout; read-out: pIC50 Cystine-induced glutamate release assay (converted). The method in brief:
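IC50 (reported as pIC50) normalized to DMSO 1% and Erastin 50 μM controls, from Amplex Red fluorescence of glutamate exported into supernatant. H4 cells were washed into sodium-free buffer to exclude EAAT transport, then given compound with 50 μM L-cystine for 2 h in the incubator.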

The target in test [2] is T1, system Xc^−. The experiment in a line: [^14C]L-Cystine uptake assay. Also noted: endogenous in cells; host or cells: H4 cells. The format is cell-based. The note with it: H4 cells, sodium-free HEPES buffer, 0.5 μM L-[14C]Cystine and 4.5 μM L-Cystine, 1 hour at 37° C.; read-out: pIC50 [^14C] L-Cystine uptake assay (converted). The procedure, abridged: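 Compound effect is given as pIC50, taken between controls of 1% DMSO and 50 μM Erastin. Human H4 cells were pretreated 15 min with compound in sodium-free buffer, then took up 0.5 μM [14C]cystine with 4.5 μM cold cystine for 1 hour at 37° C, read by scintillation proximity counting.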

Consider `Cc1ccc(NC(=O)CN2C(=O)C(C)c3ccccc3-c3c2cc(C)c(=O)n3C)cc1F` (stereo not shown) [#120, N-(3-fluoro-4-methyl-phenyl)-2-(1,3,7-trimethyl-2,6-dioxo-7H-pyrido[3,2-d][3]benzazepin-5-yl)acetamide], for which the IC50 is 15.8 to 39.8 nM in test [1] and less than 15.8 nM in test [2].

Regarding `COCC1C(=O)N(CC(=O)Nc2ccc(C(F)(F)F)cc2)c2cc(C)nc(Cl)c2-c2ccccc21` (stereo not shown) [#122, 2-[1-chloro-7-(methoxymethyl)-3-methyl-6-oxo-7H-pyrido[3,4-a][3]benzazepin-5-yl]-N-[4-(trifluoromethyl)phenyl]acetamide], the IC50 in test [1] is 100 to 501 nM; in test [2] it was 39.8 to 100 nM.

With `Cc1cc2c(c(F)n1)-c1c[nH]nc1CC(=O)N2CC(=O)Nc1ccc(C(F)(F)F)cc1` [#123, 2-(14-fluoro-12-methyl-8-oxo-4,5,9,13-tetrazatricyclo[8.4.0.0^2,6]tetradeca-1(10),2,5,11,13-pentaen-9-yl)-N-[4-(trifluoromethyl)phenyl]acetamide], the IC50 is 100 to 501 nM in test [1] and 39.8 to 100 nM in test [2].

`COc1cc2c(c(F)n1)-c1cccnc1CC(=O)N2CC(=O)Nc1ccc(C(F)(F)F)cc1` [#124, 2-(3-fluoro-5-methoxy-9-oxo-4,8,12-triazatricyclo[9.4.0.0^2,7]pentadeca-1(11),2,4,6,12,14-hexaen-8-yl)-N-[4-(trifluoromethyl)phenyl]acetamide]: the values for the IC50 in test [1] and in test [2] were 39.8 to 100 nM and 15.8 to 39.8 nM, respectively.

Take `CCn1c(C)cc2c(c1=O)-c1cccnc1CC(=O)N2CC(=O)Nc1ccc(C(F)(F)F)cc1` [#125, 2-(4-ethyl-5-methyl-3,9-dioxo-4,8,12-triazatricyclo[9.4.0.0^2,7]pentadeca-1(15),2(7),5,11,13-pentaen-8-yl)-N-[4-(trifluoromethyl)phenyl]acetamide]: the IC50 in test [1] and in test [2] was 39.8 to 100 nM in each case.

Take `Cc1cc2c(c(Cl)n1)-c1cccnc1N(C)C(=O)N2CC(=O)Nc1ccc(C(F)(F)F)cc1` [#126, 2-(3-chloro-5,10-dimethyl-9-oxo-4,8,10,12-tetrazatricyclo[9.4.0.0^2,7]pentadeca-1(11),2,4,6,12,14-hexaen-8-yl)-N-[4-(trifluoromethyl)phenyl]acetamide]: the IC50 in test [1] was 15.8 to 39.8 nM; in test [2], less than 15.8 nM.

For `Cc1cc2c(c(C#N)n1)-c1cc(F)ccc1CC(=O)N2CC(=O)Nc1ccc(C(F)(F)F)cc1` [#127, 2-(1-cyano-10-fluoro-3-methyl-6-oxo-7H-pyrido[4,3-d][3]benzazepin-5-yl)-N-[4-(trifluoromethyl)phenyl]acetamide], the IC50 in test [1] is 39.8 to 100 nM; in test [2] it was less than 15.8 nM.

As to `Cc1cc2c(c(F)n1)-c1cccnc1C(C)C(=O)N2CC(=O)Nc1ccc(C)c(F)c1` (stereo not shown) [#128, 2-(3-fluoro-5,10-dimethyl-9-oxo-4,8,12-triazatricyclo[9.4.0.0^2,7]pentadeca-1(11),2(7),3,5,12,14-hexaen-8-yl)-N-(3-fluoro-4-methyl-phenyl)acetamide], the IC50 is 15.8 to 39.8 nM in test [1] and less than 15.8 nM in test [2].

Regarding `Cc1cc2c(c(F)n1)-c1cccnc1C(C)C(=O)N2CC(=O)Nc1ccc2c(cnn2C)c1` (stereo not shown) [#129, 2-(3-fluoro-5,10-dimethyl-9-oxo-4,8,12-triazatricyclo[9.4.0.0^2,7]pentadeca-1(11),2(7),3,5,12,14-hexaen-8-yl)-N-(1-methylindazol-5-yl)acetamide], the IC50 in test [1] and in test [2] was 39.8 to 100 nM throughout.

In the case of `Cc1cc2c(c(F)n1)-c1cccnc1C(C)C(=O)N2CC(=O)Nc1ccc(F)c(F)c1` (stereo not shown) [#130, N-(3,4-difluorophenyl)-2-(3-fluoro-5,10-dimethyl-9-oxo-4,8,12-triazatricyclo[9.4.0.0^2,7]pentadeca-1(11),2(7),3,5,12,14-hexaen-8-yl)acetamide], the IC50 in test [1] and in test [2] was 39.8 to 100 nM each time.

As for `COc1ccc(NC(=O)CN2C(=O)C(C)c3ncccc3-c3c2cc(C)nc3F)cc1F` (stereo not shown) [#131, 2-(3-fluoro-5,10-dimethyl-9-oxo-4,8,12-triazatricyclo[9.4.0.0^2.7]pentadeca-1(11),2(7),3,5,12,14-hexaen-8-yl)-N-(3-fluoro-4-methoxy-phenyl)acetamide], the IC50 is 39.8 to 100 nM in test [1] and 15.8 to 39.8 nM in test [2].

For the compound `Cc1cc2c(c(F)n1)-c1cccnc1C(C)C(=O)N2CC(=O)Nc1ccc(C(F)F)cc1` (stereo not shown) [#132, N-[4-(difluoromethyl)phenyl]-2-(3-fluoro-5,10-dimethyl-9-oxo-4,8,12-triazatricyclo[9.4.0.0^2,7]pentadeca-1(11),2(7),3,5,12,14-hexaen-8-yl)acetamide], the IC50 in test [1] is 39.8 to 100 nM; in test [2], less than 15.8 nM.

As for `Cc1cc2c(c(F)n1)-c1cccnc1C(C)C(=O)N2CC(=O)Nc1ccc(C#N)c(F)c1` (stereo not shown) [#133, N-(4-cyano-3-fluoro-phenyl)-2-(3-fluoro-5,10-dimethyl-9-oxo-4,8,12-triazatricyclo[9.4.0.0^2,7]pentadeca-1(11),2(7),3,5,12,14-hexaen-8-yl)acetamide], the IC50 in test [1] and in test [2] was 39.8 to 100 nM in each case.

As to `Cc1cc2c(c(F)n1)-c1ccccc1CC(=O)N2CC(=O)Nc1ccc(C(F)F)cc1` [#134, N-[4-(difluoromethyl)phenyl]-2-(1-fluoro-3-methyl-6-oxo-7H-pyrido[4,3-d][3]benzazepin-5-yl)acetamide], the IC50 was 39.8 to 100 nM in test [1] and less than 15.8 nM in test [2].

Consider `Cc1cc2c(c(F)n1)-c1cccnc1C(C)C(=O)N2CC(=O)Nc1ccc(C2CC2)c(F)c1` (stereo not shown) [#135, N-(4-cyclopropyl-3-fluoro-phenyl)-2-(3-fluoro-5,10-dimethyl-9-oxo-4,8,12-triazatricyclo[9.4.0.0^2,7]pentadeca-1(11),2(7),3,5,12,14-hexaen-8-yl)acetamide], for which the IC50 in test [1] was 15.8 to 39.8 nM; in test [2], less than 15.8 nM.

Turning to `Cc1cc2c(c(F)n1)-c1cccnc1C(C)C(=O)N2CC(=O)Nc1ccc(OC(F)F)c(F)c1` (stereo not shown) [#136, N-[4-(difluoromethoxy)-3-fluoro-phenyl]-2-(3-fluoro-5,10-dimethyl-9-oxo-4,8,12-triazatricyclo[9.4.0.0^2,7]pentadeca-1(11),2(7),3,5,12,14-hexaen-8-yl)acetamide], the results for the IC50 in test [1] and in test [2] were 100 to 501 nM and 15.8 to 39.8 nM, respectively.

With `Cc1cc2c(c(F)n1)-c1cccnc1[C@@H](C)C(=O)N2CC(=O)Nc1ccc(C(F)(F)F)c(C)c1` [#137, 2-[(10R)-3-fluoro-5,10-dimethyl-9-oxo-4,8,12-triazatricyclo[9.4.0.0^2,7]pentadeca-1(11),2(7),3,5,12,14-hexaen-8-yl]-N-[3-methyl-4-(trifluoromethyl)phenyl]acetamide], the IC50 in test [1] and in test [2] was 15.8 to 39.8 nM throughout.

For `Cc1cc2c(c(F)n1)-c1cccnc1[C@@H](C)C(=O)N2CC(=O)Nc1ccc(I)cc1` [#138, 2-[(10R)-3-fluoro-5,10-dimethyl-9-oxo-4,8,12-triazatricyclo[9.4.0^2,7]pentadeca-1(11),2(7),3,5,12,14-hexaen-8-yl]-N-(4-iodophenyl)acetamide], the IC50 in test [1] and in test [2] was less than 15.8 nM each time.

`Cc1cc2c(c(F)n1)-c1cccnc1[C@@H](C)C(=O)N2CC(=O)Nc1ccc(OC(F)F)cc1` [#139, N-[4-(difluoromethoxy)phenyl]-2-[(10R)-3-fluoro-5,10-dimethyl-9-oxo-4,8,12-triazatricyclo[9.4.0.0^2,7]pentadeca-1(11),2(7),3,5,12,14-hexaen-8-yl]acetamide]: the IC50 in test [1] and in test [2] was 15.8 to 39.8 nM throughout.

Take `Cc1cc2c(c(F)n1)-c1cccnc1[C@@H](C)C(=O)N2CC(=O)Nc1ccc(F)c(F)c1` [#140, N-(3,4-difluorophenyl)-2-[(10R)-3-fluoro-5,10-dimethyl-9-oxo-4,8,12-triazatricyclo[9.4.0.0^2,7]pentadeca-1(11),2(7),3,5,12,14-hexaen-8-yl]acetamide]: the IC50 in test [1] and in test [2] was 15.8 to 39.8 nM each time.
